Assay: Capability of compound to inhibit the binding of [3H]LTB4 to guinea pig spleen Leukotriene B4 receptor at the concentration of 10e-5 M

Row | IC50 [nM] | SMILES
1 | 200 | Cc1cc(CCCc2ccccc2)c(CCCCCC(C)(C)C(=O)O)s1

Assay: Capability of compound to inhibit the binding of [3H]LTB4 to guinea pig spleen Leukotriene B4 receptors at the concentration of 10e-5 M

Row | IC50 [nM] | SMILES
2 | 1000 | O=C(O)CCCCCCc1ccsc1CCCc1ccccc1

Assay: Capability to inhibit the binding of [3H]LTB4 to guinea pig spleen Leukotriene B4 receptor at the concentration of 10e-5 M

Row | SMILES | IC50 [nM]
3 | O=C(O)CCCCc1sccc1CCCc1ccccc1 | 3500
4 | O=C(O)CCCCCCc1csc(CCc2ccccc2)c1 | 10000
5 | O=C(O)CCCCCCc1csc(Cc2ccccc2)c1 | 10000
6 | O=C(O)CCCCCC(O)c1sccc1CCCc1ccccc1 (stereo not drawn) | 6000
7 | Cc1cc(CCCc2ccccc2)c(SCCCCCC(=O)O)s1 | 3000
8 | O=C(O)CCCCCCc1csc(CCCc2ccc(Cl)cc2)c1 | 1000
9 | CC(C)(CCCCCc1cc(-c2ccccc2)sc1CCCc1ccccc1)C(=O)O | 1200
10 | O=C(O)CCCCCCc1csc(CCCc2ccc(O)cc2)c1 | 5000

Results, then the molecule that gave them:

Row | IC50 [nM] | SMILES
11 | 1000 | O=C(O)CCCCCCc1ccsc1CCCc1ccc(Cl)cc1
12 | 1000 | O=C(O)CCCCCCc1sc(-c2ccccc2)cc1CCCc1ccccc1
13 | 110 | CC(CCCCCc1sccc1CCCc1ccccc1)C(=O)O (stereo not drawn)
14 | 300 | Cc1cc(CCCCCC(C)C(=O)O)c(CCCc2ccccc2)s1 (stereo not drawn)
15 | 1000 | O=C(O)CCCCCCc1sccc1CCCc1ccccc1
16 | 300 | Cc1cc(CCCc2ccccc2)c(CCCCCC(C)C(=O)O)s1 (stereo not drawn)
17 | 800 | CC(C)(CCCCCc1sc(-c2ccccc2)cc1CCCc1ccccc1)C(=O)O
18 | 700 | Cc1cc(CCCCCCC(=O)O)c(CCCc2ccccc2)s1
